Results published in ChEMBL document CHEMBL1126504, “Synthesis of pyrrolidine oxazoles as thromboxane A2/endoperoxide receptor antagonists” (Bioorg Med Chem Lett, 1993).

Key:
Homo sapiens = species on record: Homo sapiens; assay: Inhibition of arachidonic acid-induced and ADP-induced platelet aggregation of human platelet rich plasma; format: functional; conditions: read-out: I50
Thromboxane A2 receptor = target: T1, Thromboxane A2 receptor (Homo sapiens, UniProt P21731); assay: Binding affinity was determined for Thromboxane A2 receptor in human platelet membrane in presence of [3H]-SQ-29,548 radioligand; format: cell membranes
T1 sequence (P21731 whole entry): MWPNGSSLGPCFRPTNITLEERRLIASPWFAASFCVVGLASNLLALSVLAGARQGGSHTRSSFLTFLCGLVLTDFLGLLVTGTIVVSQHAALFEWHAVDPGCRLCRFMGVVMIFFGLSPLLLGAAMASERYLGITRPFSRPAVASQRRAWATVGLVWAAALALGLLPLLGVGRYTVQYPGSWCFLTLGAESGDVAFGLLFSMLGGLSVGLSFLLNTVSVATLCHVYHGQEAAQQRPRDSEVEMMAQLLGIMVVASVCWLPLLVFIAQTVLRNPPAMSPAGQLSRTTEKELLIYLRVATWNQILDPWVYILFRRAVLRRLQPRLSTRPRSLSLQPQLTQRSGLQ

Structure (SMILES)	IC50 (Homo sapiens; Homo sapiens, Plasma) [nM]	further results
O=C(O)CCc1ccccc1CN1CCC[C@H]1c1nc(C(=O)NCCCCC2CCCCC2)co1	19	–
O=C(O)CCc1ccccc1CN1CCCC1c1nc(C(=O)NCCCCC2CCCCC2)co1 (stereo not drawn)	–	Kd (Thromboxane A2 receptor): 11 nM
O=C(O)CCc1ccccc1C(=O)N1c2ccccc2CC1c1nc(C(=O)NCCc2ccc(Cl)cc2)co1 (single isomer, unassigned; (-))	–	IC50 (Homo sapiens): 3700 nM
O=C(O)CCc1ccccc1CN1CCC[C@@H]1c1nc(C(=O)NCCCCC2CCCCC2)co1	1700	–
O=C(O)CCc1ccccc1CN1C(=O)CCC1c1nc(C(=O)NCCCCC2CCCCC2)co1 (stereo not drawn)	23000	–
O=C(O)CCc1ccccc1C(=O)N1CCC[C@H]1c1nc(C(=O)NCCCCC2CCCCC2)co1	19	–
O=C(O)CCc1ccccc1C(=O)N1[C@@H](O)CC[C@H]1c1nc(C(=O)NCCc2ccc(Cl)cc2)co1	3700	–
O=C(O)CCc1ccccc1C(=O)N1c2ccccc2CC1c1nc(C(=O)NCCc2ccc(Cl)cc2)co1 (single isomer, unassigned; (+))	–	IC50 (Homo sapiens): 250 nM
